The source of these data is the RepoRT retention time repository.

Structures are written as SMILES. Counter-ions that a name gives are not always drawn.

The nature of the data set: RP, Waters ACQUITY Premier BEH C18, 100 × 2.1 mm, 1.7 µm, 40 °C, 0.3 to 0.4 mL/min, estimated dead time 0.73 min; A: water + 0.1% formic acid; B: acetonitrile + 0.1% formic acid; gradient (min/%B) 0/0.5 0.1/0.5 10/80 10.1/99.5 12/0.5 12.1/0.5 14.5/0.5. Conditions: stereoisomer not certain.
In the case of `CC1NC(=O)NC1CCCCCC(=O)O` (stereo not drawn) [DETHIOBIOTIN], the LC retention time was 4.85 min.

With `O=c1c2cc(O)c(O)cc2oc2cc(O)c(C3OC(CO)C(O)C(O)C3O)c(O)c12` (stereo not drawn) [MANGIFERIN], the LC retention time was 3.75 min.

Take `CC(C)=CCOc1c2occc2cc2ccc(=O)oc12` [IMPERATORIN]: the LC retention time is 7.46 min.

With `O=c1cc(C2Oc3cc(O)cc(O)c3CC2O)cc2c(C3Oc4cc(O)cc(O)c4CC3O)cc(O)c(O)c2c1O` (stereo not drawn) [THEAFLAVIN], the LC retention time was 5.18 min.

Take `Nc1cc(O)cc(C(=O)O)c1` [3-AMINO-5-HYDROXYBENZOATE]: the LC retention time was 1.49 min.

As to `O=C(O)C(O)Cc1ccc(O)cc1` (stereo not drawn) [HYDROXYPHENYLLACTATE], the LC retention time was 4.05 min.

With `O=c1c(O)c(-c2ccccc2)oc2cc(O)cc(O)c12` [NORIZALPININ], the LC retention time was 7.12 min.

Consider `O=C(O)CC(C(=O)O)C(O)C(=O)O` (stereo not drawn) [ISOCITRATE], for which the LC retention time was 1.16 min.

`O=C(O)c1cc(=O)c2cccc(O)c2[nH]1` [XANTHURENATE]: the LC retention time was 3.98 min.

In the case of `NC(=O)CCC(NC(=O)Cc1ccccc1)C(=O)O` (stereo not drawn) [PHENYLACETYLGLUTAMINE], the LC retention time was 3.9 min.

Turning to `Cn1c(=O)c2c(ncn2C)n(C)c1=O` [CAFFEINE], the LC retention time was 4.3 min.

In the case of `Nc1nc2c(ncn2C2CC(O)C(COP(=O)(O)O)O2)c(=O)[nH]1` (stereo not drawn) [DEOXYGUANOSINE-MONOPHOSPHATE], the LC retention time was 1.47 min.

On to `CCCC(=O)OC(CC(=O)[O-])C[N+](C)(C)C` (stereo not drawn) [BUTYRYLCARNITINE], for which the LC retention time is 3.89 min.

On to `O=Cc1cccc(O)c1` [3-HYDROXYBENZALDEHYDE], for which the LC retention time was 5.11 min.

As for `C[Se]CCC(N)C(=O)O` (stereo not drawn) [SELENOMETHIONINE], the LC retention time was 1.09 min.

On to `CCCCC(=O)C(=O)O` [2-KETOHEXANOIC ACID], for which the LC retention time is 4.8 min.

As to `CC(CCC(=O)NCC(=O)O)C1CCC2C3CCC4CC(O)CCC4(C)C3CC(O)C12C` (stereo not drawn) [DEOXYCHOLIC ACID GLYCINE CONJUGATE], the LC retention time was 7.24 min.

As to `Cn1cc(C(N)=O)ccc1=O` [N1-METHYL-2-PYRIDONE-5-CARBOXAMIDE], the LC retention time is 1.12 min.

Take `CCCCCCCCCCCC=CCCCCC(=O)O` [PETROSELINATE]: the LC retention time is 10 min.

On to `O=C(O)c1c[nH]c(=O)[nH]c1=O` [URACIL 5-CARBOXYLATE], for which the LC retention time is 1.91 min.

On to `CC1OC(OCC2OC(Oc3c(-c4ccc(O)c(O)c4)oc4cc(O)cc(O)c4c3=O)C(O)C(O)C2O)C(O)C(O)C1O` (stereo not drawn) [RUTIN], for which the LC retention time was 4.25 min.

As for `CC(=O)NCCC(=O)O` [N-ACETYL-BETA-ALANINE], the LC retention time was 1.03 min.

On to `CCC(NC(=O)CCC(N)C(=O)O)C(=O)NCC(=O)O` (stereo not drawn) [OPHTHALMATE], for which the LC retention time was 2.03 min.

For `O=C(O)c1cc(=O)[nH]c(=O)[nH]1` [OROTATE], the LC retention time was 1.19 min.

For the compound `Nc1ccn(C2CC(O)C(CO)O2)c(=O)n1` (stereo not drawn) [DEOXYCYTIDINE], the LC retention time was 1.78 min.

As to `O=C(O)CP(=O)(O)O` [PHOSPHONOACETATE], the LC retention time was 0.959 min.

As for `Cn1c(=O)[nH]c(=O)c2c1[nH]c(=O)n2C` [3,7-DIMETHYLURIC ACID], the LC retention time is 1.28 min.

Take `C=C(CC(=O)O)C(=O)O` [ITACONATE]: the LC retention time is 3.67 min.

For `O=c1cc(CO)occ1O` [KOJIC ACID], the LC retention time was 1.17 min.

Turning to `Nc1ccn(C2CC(O)C(COP(=O)(O)O)O2)c(=O)n1` (stereo not drawn) [DEOXYCYTIDINE MONOPHOSPHATE], the LC retention time is 1.37 min.

Consider `O=C(O)CCc1ccccc1O` [3-(2-HYDROXYPHENYL)PROPANOATE], for which the LC retention time was 5.47 min.

For `Nc1c(O)cccc1C(=O)O` [3-HYDROXYANTHRANILATE], the LC retention time was 3.85 min.

As to `NCCc1c[nH]c2ccccc12` [TRYPTAMINE], the LC retention time was 4.34 min.

Regarding `COc1ccc(C2CC(=O)c3c(O)cc(OC4OC(CO)C(O)C(O)C4OC4OC(C)C(O)C(O)C4O)cc3O2)cc1O` (stereo not drawn) [HESPERETIN 7-NEOHESPERIDOSIDE], the LC retention time is 4.83 min.

Consider `Cn1cnc2[nH]c(=O)[nH]c(=O)c21` [7-METHYLXANTHINE], for which the LC retention time is 1.2 min.

With `Cc1nccc2c1[nH]c1ccccc12` [HARMAN], the LC retention time was 4.24 min.

Regarding `C=CC(C)(O)CCC1C(C)(O)CCC2C(C)(C)CCCC21C` (stereo not drawn) [SCLAREOL], the LC retention time is 8.18 min.

In the case of `O=C(O)CCCc1c[nH]c2ccccc12` [3-INDOLEBUTYRIC ACID], the LC retention time was 6.25 min.

`CCCCCC(=O)NCC(=O)O` [HEXANOYLGLYCINE]: the LC retention time is 5.2 min.

For `C=CC1CN2CCC1CC2C(O)c1ccnc2ccc(OC)cc12` (stereo not drawn) [QUININE], the LC retention time was 3.88 min.

Regarding `N[C@@H](Cc1cc(I)c(O)c(I)c1)C(=O)O` [3,5-DIIODO-L-TYROSINE], the LC retention time was 4.59 min.

Regarding `O=c1c(-c2ccc(O)cc2)coc2cc(OC3OC(CO)C(O)C(O)C3O)ccc12` (stereo not drawn) [DAIDZIN], the LC retention time is 4.08 min.

Regarding `CCCCCC(N)C(=O)O` (stereo not drawn) [2-AMINOHEPTANOATE], the LC retention time was 2.81 min.

With `NC(Cc1cc(I)c(Oc2ccc(O)c(I)c2)c(I)c1)C(=O)O` (stereo not drawn) [LIOTHYRONINE], the LC retention time is 6.23 min.

In the case of `CCCC(=O)O` [BUTANOATE], the LC retention time is 3.99 min.

As for `C=CCC(=NOS(=O)(=O)O)SC1OC(CO)C(O)C(O)C1O` (stereo not drawn) [SINIGRIN], the LC retention time was 2.03 min.

Turning to `CC1(O)CCOC(=O)C1` (stereo not drawn) [MEVALOLACTONE], the LC retention time is 3.33 min.

For `CCCCCCCCCC(=O)OCC(COP(=O)([O-])OCC[N+](C)(C)C)OC(=O)CCCCCCCCC` (stereo not drawn) [DIDECANOYL-GLYCEROPHOSPHOCHOLINE], the LC retention time was 8.51 min.

Turning to `O=C(O)C(O)c1ccc(O)c(O)c1` (stereo not drawn) [3,4 DIHYDROXYMANDELATE], the LC retention time is 1.62 min.

As for `CC(C)=CCCC(C)=CCC1=C(C)C(=O)c2ccccc2C1=O` [MENAQUINONE], the LC retention time was 10.8 min.

For the compound `CNCCc1c[nH]c2ccccc12` [N-METHYLTRYPTAMINE], the LC retention time is 4.45 min.

`CC(=O)OCC(=O)C1CCC2C3CCC4=CC(=O)CCC4(C)C3CCC12C` (stereo not drawn) [DEOXYCORTICOSTERONE ACETATE]: the LC retention time was 7.64 min.

For the compound `O=C1OCC(Cc2cccc(O)c2)C1Cc1cccc(O)c1` (stereo not drawn) [ENTEROLACTONE], the LC retention time was 6.68 min.

Take `O=C(O)c1cc(O)c(O)c(O)c1` [GALLIC ACID]: the LC retention time is 1.34 min.

As for `CC(O)CC(=O)O` (stereo not drawn) [3-HYDROXYBUTANOATE], the LC retention time was 4.45 min.

Turning to `CNCC(O)c1ccc(O)cc1` [D-SYNEPHRINE], the LC retention time was 0.927 min.

`O=C(C=Cc1ccc(O)c(O)c1)OC(Cc1ccc(O)c(O)c1)C(=O)O` (stereo not drawn) [ROSMARINATE]: the LC retention time was 5.44 min.

Consider `O=CNCC(=O)O` [N-FORMYLGLYCINE], for which the LC retention time is 0.962 min.

Regarding `O=c1cc(-c2ccc(O)cc2)oc2cc(OC3OC(CO)C(O)C(O)C3O)cc(O)c12` (stereo not drawn) [COSMOSIIN], the LC retention time is 4.75 min.

For the compound `CCCCCCCCC=CCCCCCCCC(=O)O` [ELAIDATE], the LC retention time is 10 min.

Turning to `N[C@@H](Cc1cc(I)c(Oc2ccc(O)cc2)c(I)c1)C(=O)O` [3,5-DIIODO-L-THYRONINE], the LC retention time is 5.64 min.

With `O=C(O)Cc1cccc(O)c1` [3-HYDROXYPHENYLACETATE], the LC retention time is 3.54 min.

Consider `Cc1cn(C2CC(O)C(CO)O2)c(=O)[nH]c1=O` (stereo not drawn) [THYMIDINE], for which the LC retention time was 3.56 min.

Consider `CC(=O)NCCc1cnc[nH]1` [N-ACETYLHISTAMINE], for which the LC retention time is 0.998 min.

Turning to `NC(CCC(=O)NC(Cc1ccccc1)C(=O)O)C(=O)O` (stereo not drawn) [GAMMA-GLUTAMYLPHENYLALANINE], the LC retention time is 3.65 min.

Turning to `CC1=C(O)C(=O)C=C2C1=CC=C1C2(C)CCC2(C)C3CC(C)(C(=O)O)CCC3(C)CCC12C` (stereo not drawn) [CELASTROL], the LC retention time is 8.6 min.

With `CC1C(=O)OC2C(O)C34C5OC(=O)C3(OC3OC(=O)C(O)C34C(C(C)(C)C)C5O)C12O` (stereo not drawn) [GINKGOLIDE C], the LC retention time was 4.74 min.

On to `O=c1[nH]c(=O)c2[nH]c(=O)[nH]c2[nH]1` [URATE], for which the LC retention time was 1.52 min.

For the compound `O=Cc1ccc(O)cc1` [4-HYDROXYBENZALDEHYDE], the LC retention time is 4.88 min.

Turning to `O=C(O)Cc1cnc[nH]1` [4-IMIDAZOLEACETATE], the LC retention time is 0.92 min.

On to `Nc1ccn(C2OC(CO)C(O)C2O)c(=O)n1` (stereo not drawn) [CYTIDINE], for which the LC retention time is 1.41 min.

On to `O=C1c2c(O)cc(O)cc2OCC1c1ccc(O)cc1` (stereo not drawn) [DIHYDROGENISTEIN], for which the LC retention time is 5.97 min.

For the compound `CC(=O)NCCCCN` [N-ACETYLPUTRESCINE], the LC retention time is 0.96 min.

For the compound `NC(CCSSCCC(N)C(=O)O)C(=O)O` (stereo not drawn) [HOMOCYSTINE], the LC retention time is 0.958 min.

`CC(=O)Nc1c(NC=O)[nH]c(=O)n(C)c1=O` [5-ACETYLAMINO-6-FORMYLAMINO-3-METHYLURACIL]: the LC retention time was 1.11 min.

As to `Oc1cccc(O)c1O` [PYROGALLOL], the LC retention time was 2.89 min.

Take `CC(=O)NCC(=O)O` [N-ACETYLGLYCINE]: the LC retention time is 1.26 min.

As for `Oc1ccccc1O` [PYROCATECHOL], the LC retention time is 3.85 min.

Regarding `CC(=O)C1CCC2C3CC=C4CC(OS(=O)(=O)O)CCC4(C)C3CCC12C` (stereo not drawn) [PREGNENOLONE SULFATE], the LC retention time is 7.26 min.

On to `O=C(O)C1CCCCC1` [CYCLOHEXANECARBOXYLIC ACID], for which the LC retention time was 5.27 min.

With `CC1CNC(=O)NC1=O` (stereo not drawn) [DIHYDROTHYMINE], the LC retention time was 1.26 min.

Turning to `NC(N)=S` [THIOUREA], the LC retention time is 0.942 min.

As for `Nc1nc2c(ncn2C2OC(COP(=O)(O)OP(=O)(O)OC3OC(CO)C(O)C(O)C3O)C(O)C2O)c(=O)[nH]1` (stereo not drawn) [GUANOSINE DIPHOSPHATE MANNOSE], the LC retention time was 1.37 min.
